In paper PMC10184129 (Journal of Medicinal Chemistry, 2023):

Assays:
[1] = system: Aβ25–35-induced learning impairments in mice; settings: 3 mg/kg IP
[2] = system: murine microglial N9 cells; settings: LPS 100 ng/mL, 24 h; for TREM2 and TGFβ2 expression: 1-5 μM
[3] = molecular target: T1, hBChE (Homo sapiens, UniProt P06276)
[4] = molecular target: T1, hBChE; remark: listed apart in the source
[5] = molecular target: rCB1R (Rattus norvegicus, UniProt P20272)
[6] = molecular target: hCB2R (Homo sapiens, UniProt P34972)
Chain of hCB2R (P34972 whole entry): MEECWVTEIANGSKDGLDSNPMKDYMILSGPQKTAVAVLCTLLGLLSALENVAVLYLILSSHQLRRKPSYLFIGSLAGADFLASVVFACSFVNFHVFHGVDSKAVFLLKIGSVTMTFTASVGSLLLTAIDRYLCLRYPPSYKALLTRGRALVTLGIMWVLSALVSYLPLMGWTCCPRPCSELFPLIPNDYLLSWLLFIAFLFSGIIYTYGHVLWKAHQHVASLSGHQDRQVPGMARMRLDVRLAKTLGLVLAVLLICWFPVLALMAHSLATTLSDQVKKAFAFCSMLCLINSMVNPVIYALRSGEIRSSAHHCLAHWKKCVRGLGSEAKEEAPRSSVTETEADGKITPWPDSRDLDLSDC

T1 sequence (P06276 29-602): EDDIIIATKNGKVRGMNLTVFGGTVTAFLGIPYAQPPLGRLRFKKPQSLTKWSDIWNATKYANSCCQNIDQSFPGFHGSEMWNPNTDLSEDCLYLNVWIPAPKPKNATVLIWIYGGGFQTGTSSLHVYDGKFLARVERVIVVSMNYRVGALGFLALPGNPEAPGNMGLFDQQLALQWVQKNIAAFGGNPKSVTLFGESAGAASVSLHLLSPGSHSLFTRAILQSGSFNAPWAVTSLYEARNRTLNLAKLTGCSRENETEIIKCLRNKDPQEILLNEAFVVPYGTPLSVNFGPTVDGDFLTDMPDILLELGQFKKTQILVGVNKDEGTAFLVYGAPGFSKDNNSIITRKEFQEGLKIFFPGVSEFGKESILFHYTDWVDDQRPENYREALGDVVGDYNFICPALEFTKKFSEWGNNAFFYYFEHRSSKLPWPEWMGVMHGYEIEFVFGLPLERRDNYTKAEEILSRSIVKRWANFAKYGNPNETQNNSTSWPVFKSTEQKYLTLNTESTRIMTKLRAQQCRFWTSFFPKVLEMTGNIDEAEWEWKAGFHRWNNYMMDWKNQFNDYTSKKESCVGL
Chain of rCB1R (P20272 whole entry): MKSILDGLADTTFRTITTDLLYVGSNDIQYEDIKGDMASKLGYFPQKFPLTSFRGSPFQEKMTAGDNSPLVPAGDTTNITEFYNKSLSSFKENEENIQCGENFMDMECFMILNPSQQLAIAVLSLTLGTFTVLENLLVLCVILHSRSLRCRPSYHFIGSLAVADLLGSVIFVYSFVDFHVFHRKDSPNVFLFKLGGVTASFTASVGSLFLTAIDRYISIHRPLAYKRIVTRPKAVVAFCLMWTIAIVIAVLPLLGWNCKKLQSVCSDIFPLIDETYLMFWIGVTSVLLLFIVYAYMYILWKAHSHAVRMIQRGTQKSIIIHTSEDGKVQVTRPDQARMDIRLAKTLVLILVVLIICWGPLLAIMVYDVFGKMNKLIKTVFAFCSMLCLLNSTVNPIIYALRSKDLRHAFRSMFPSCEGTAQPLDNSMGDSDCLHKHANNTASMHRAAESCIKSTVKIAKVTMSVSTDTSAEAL

CCN(CC)C(=O)c1ccc2c(c1)nc(Cc1ccc(OC(=O)N(C)C)cc1)n2CCC(C)C [15d, 4-((5-(Diethylcarbamoyl)-1-isopentyl-1H-benzo[d]imidazole-2-yl)methyl)phenyl dimethylcarbamate]
effect of highest dose on Aβ25–35-induced learning deficits, passive avoidance [1]: complete blockade
TREM2 and TGFβ2 expression [2]: No parallel change
concentration significantly decreasing expression of (i)NOS ([2]; Western blot): 1.0 µM
νmax, times higher than compound 21d [3]: 15

CCOc1ccc(Cc2nc3cc(OC(=O)N(C)C)ccc3n2CCC(C)C)cc1 [21a, 2-(4-Ethoxybenzyl)-1-isopentyl-1H-benzo[d]imidazole-5-yl dimethylcarbamate]
fold less active on hBChE than counterpart 15d [4]: more than 100 fold

CCOc1ccc(Cc2nc3cc(OC(=O)N(C)CC)ccc3n2CCC(C)C)cc1 [21b, 2-(4-Ethoxybenzyl)-1-isopentyl-1H-benzo[d]imidazole-5-yl ethyl(methyl)carbamate]
affinity toward CB1R (in words) [5]: only exception

CCOc1ccc(Cc2nc3cc(OC(=O)N4CCC4)ccc3n2CCC(C)C)cc1 [21d, 2-(4-Ethoxybenzyl)-1-isopentyl-1H-benzo[d]imidazole-5-yl Azetidine-1-carboxylate]
TREM2 and TGFβ2 expression [2]: No parallel change
concentration significantly decreasing expression of (i)NOS ([2]; Western blot): 2.5 µM
concentration significantly reducing IL1β release ([2]; Western blot): 1.0 µM

CCOc1ccc(Cc2nc3cc(C(=O)N(CC)CC)ccc3n2CCC(C)C)cc1 [compound 4]
agonist character in calcium mobilization [6]: full agonist
